Laboratory results published in patent US20240131168A1, “NAPHTHALENE RING-CONTAINING COMPOUND, PHARMACEUTICAL COMPOSITION CONTAINING SAME, AND USE THEREOF” (JIANGSU YAHONG MEDITECH CO., LTD., priority 2021, published 2024).

Key:
Format in all cases: cell-based
MCF-7 ER^D538G = assay: CellTiter-Glo cell proliferation inhibition, MCF-7 ER^D538G; conditions: Homo sapiens, MCF7, 144 h, MCF-7 ER^D538G (CTG), 6 days, starting concentration 10 μM; for inhibition at up to 10 µM: read-out: IH % max (maximum inhibition percentage)
Description: (§1) 1. Cell line • (1) Breast cancer cell lines and their culture media: • MCF-7 (ATCC; Cat. No.: HTB-22), a Luminal A breast cancer cell; • TamR-MCF-7 (ATCC; Cat. No.: CRL-3435), a breast cancer cell; • MCF-7 ER^D538G: a Luminal A breast cancer cell obtained by constructing MCF-7 (ATCC; Cat. No.: HTB-22) using CRISPR-Cas9 gene editing technology; • MCF-7 ER^Y537S: a Luminal A breast cancer cell obtained by constructing MCF-7 (ATCC; Cat. No.: HTB-22) using CRISPR-Cas9 gene editing technology; • MDA-MB-231: (manufacturer: Nanjing CoBioer Biosciences Co., Ltd.), a triple-negative breast cancer cell; • MDA-MB-468: (manufacturer: Nanjing CoBioer Biosciences Co., Ltd.), a triple-negative breast cancer cell.
(§2) Herein, the culture medium of MCF-7, TamR-MCF-7, MCF-7 ER^D538G, and MCF-7 ER^Y537S was EMEM; • the culture medium of MDA-MB-231 and MDA-MB-468 was DMEM.
(§3) 2. Reagents • Culture medium EMEM (Gibco, 1964507) • Culture medium DMEM (Gibco, 12430-054) • Fetal bovine serum (Gibco, 10091148) • Penicillin-streptomycin double antibody (Gibco, S110JV) • DPBS (Gibco, 14190-144) • CellTiter-Glo® assay kit (Promega, G7573) • Trypsin (0.25%) (Gibco, 25200-056) • DMSO (Sigma, D2650)
(§4) 3. Instruments • Biosafety cabinet (AIRTECH, BSC-1300A II) • Automated cell counter (Life Technologies, countess II) • Multifunctional microplate reader (Biotek, H1FM) • Orbital shaker (Hangzhou Allsheng Instruments Co., Ltd., OS-100) • XLFIT 5.3 (Inforstack Shanghai Co., Ltd.)
(§5) For this test method, the following experiments were performed in a biosafety cabinet, with the specific steps as follows: • (1) Cells were inoculated in a 96-well plate. One day later, the previous culture medium was poured off, 5 mL of DPBS was added to wash the cells, and then DPBS was pipetted and discarded. An appropriate amount of trypsin was then added. The plate was digested in a 37° C., 5% CO2 cell incubator for about 2 to 5 minutes and then taken out. Anew corresponding culture medium was added, and pipetted up and down to resuspend the cells evenly. The cells were then counted using an automated cell counter. • (2) Each cell was inoculated in columns 1 to 11 of a 96-well plate (Corning, Cat. No.: 3610) at a density of 1,000 or 2,000 cells per well in 100 μL of culture medium, and 100 μL of the corresponding culture medium without cells was added to the wells in column 12. The plate was then placed in a 37° C., 5% CO2 incubator for 24 hours. • (3) The compound of the present disclosure and the control drug fulvestrant (Selleck; Cat. No.: S1191) were then 4-fold serially diluted to 10 dose points starting at 10 μM. 10 μL of the serially diluted compound was pipetted and added to 100 μL of cells in columns 1 to 10, and 10 μL of the corresponding culture medium containing 0.33 v % DMSO was added to both columns 11 and 12. The plate was incubated in a 37° C., 5% CO2 incubator for 6 days or 72 hours (Note: column 11 was used as a MAX well with cells but without compound; column 12 was used as a MIN well without cells […]). • (4) The cell viability detection reagent in the CellTiter-Glo® assay kit was then added to the 96-well plate at 50 μL per well according to the instructions, and shaken on an orbital shaker in the dark for 5 to 10 minutes. The cell viability was then measured using a multifunctional microplate reader. Finally, the inhibition of cell proliferation by the compound of the present disclosure was plotted by XLFIT software, and the IC50 value (half inhibitory concentration) and the IH % max (maximum inhibition percentage) of the compound of the present disclosure were calculated.

MCF-7 ER^Y537S = assay: CellTiter-Glo cell proliferation inhibition, MCF-7 ER^Y537S; conditions: Homo sapiens, MCF7, 144 h; MCF-7 ER^Y537S (CTG), 6 days, starting concentration 10 μM; read-out: IH % max (maximum inhibition percentage)
Description: as §1, §2, §3, §4, §5

MCF-7 = assay: CellTiter-Glo cell proliferation inhibition, MCF-7 (Effect Example 2); conditions: Homo sapiens, MCF7, 144 h, MCF-7 (CTG), 6 days, starting concentration 10 μM; for inhibition at up to 10 µM: read-out: IH % max (maximum inhibition percentage)
Description: as §1, §2, §3, §4, §5

MDA-MB-468 = assay: CellTiter-Glo cell proliferation inhibition, MDA-MB-468; conditions: Homo sapiens, 144 h; MDA-MB-468 (CTG), 6 days, starting concentration 10 μM; read-out: IH % max (maximum inhibition percentage)
Description: as §1, §2, §3, §4, §5
Compounds D64 to D69 were tested for MDA-MB-231 (CTG) and MDA-MB-468 (CTG) with an incubation time of 72 hours in the incubator.

TamR-MCF-7 = assay: CellTiter-Glo cell proliferation inhibition, TamR-MCF-7; conditions: 144 h; TamR-MCF-7 (CTG), 6 days, starting concentration 10 μM; read-out: IH % max (maximum inhibition percentage)
Description: as §1, §2, §3, §4, §5

CCN(CCOCCNc1ccc2c(c1)C(=O)N(C1CCC(=O)NC1=O)C2=O)CCOc1ccc(Oc2c(-c3ccc(S(C)(=O)=O)cc3)ccc3cc(O)ccc23)cc1 (centres unmarked) [Compound D38, […]]
inhibition at up to 10 µM (MCF-7 ER^D538G): 54%
inhibition at up to 10 µM (MCF-7 ER^Y537S): 47%

CCN(CCOCCOCCOCCOc1ccc2c(c1)C(=O)N(C1CCC(=O)NC1=O)C2=O)CCOc1ccc(Oc2c(-c3ccc(S(C)(=O)=O)cc3)ccc3cc(O)ccc23)cc1 (centres unmarked) [Compound D48, 2-(2,6-dioxopiperidin-3-yl)-5-((3-ethyl-1-(4-((6-hydroxy-2-(4-(methylsulfonyl)phenyl)naphthalen-1-yl)oxy)phenoxy)-6,9,12-trioxa-3-azatetradecan-14-yl)oxy)isoindoline-1,3-dione]
inhibition at up to 10 µM (MCF-7 ER^D538G): 66%
inhibition at up to 10 µM (MCF-7 ER^Y537S): 41%
inhibition at up to 10 µM (MCF-7): 32%

CCN(CCOCCOCCOCCOc1cccc2c1C(=O)N(C1CCC(=O)NC1=O)C2=O)CCOc1ccc(Oc2c(-c3ccc(S(C)(=O)=O)cc3)ccc3cc(O)ccc23)cc1 (centres unmarked) [Compound D36, 2-(2,6-dioxopiperidin-3-yl)-4-((3-ethyl-1-(4-((6-hydroxy-2-(4-(methylsulfonyl)phenyl)naphthalen-1-yl)oxy)phenoxy)-6,9,12-trioxa-3-azatetradecan-14-yl)oxy)isoindoline-1,3-dione]
inhibition at up to 10 µM (MDA-MB-468): 37%
inhibition at up to 10 µM (MCF-7 ER^D538G): 62%
inhibition at up to 10 µM (MCF-7 ER^Y537S): 51%

CCN(CCCc1ccc2c(c1)CN(C1CCC(=O)NC1=O)C2=O)CCOc1ccc(Oc2c(-c3ccc(S(C)(=O)=O)cc3)ccc3cc(O)ccc23)cc1 (centres unmarked) [Compound D4, 3-(5-(3-(ethyl(2-(4-((6-hydroxy-2-(4-(methylsulfonyl)phenyl)naphthalen-1-yl)oxy)phenoxy)ethyl)amino)propyl)-1-oxoisoindolin-2-yl)piperidine-2,6-dione]
inhibition at up to 10 µM (MDA-MB-468): 53%
IC50 (MCF-7 ER^D538G): 502 nM
inhibition at up to 10 µM (MCF-7 ER^D538G): 80%
inhibition at up to 10 µM (TamR-MCF-7): 32%
inhibition at up to 10 µM (MCF-7 ER^Y537S): 63%

CS(=O)(=O)c1ccc(-c2ccc3cc(O)ccc3c2Oc2ccc(OCCN3CCN(c4ccc5c(c4)C(=O)N(C4CCC(=O)NC4=O)C5)CC3)cc2)cc1 (centres unmarked) [Compound D32, 3-(6-(4-(2-(4-((6-hydroxy-2-(4-(methylsulfonyl)phenyl)naphthalen-1-yl)oxy)phenoxy)ethyl)piperazin-1-yl)-1-oxoisoindolin-2-yl)piperidine-2,6-dione]
inhibition at up to 10 µM (MCF-7 ER^D538G): 38%
inhibition at up to 10 µM (MCF-7 ER^Y537S): 33%
inhibition at up to 10 µM (MCF-7): 39%

C[C@@H]1CN(CCOc2ccc(Oc3c(-c4ccc(S(C)(=O)=O)cc4)ccc4cc(O)ccc34)cc2)[C@@H](C)CN1CCN1CCN(c2ccc3c(c2)C(=O)N(C2CCC(=O)NC2=O)C3)CC1 (stereo partly drawn) [Compound D61, 3-(6-(4-(2-((2R,5S)-4-(2-(4-((6-hydroxy-2-(4-(methylsulfonyl)phenyl)naphthalen-1-yl)oxy)phenoxy)ethyl)-2,5-dimethylpiperazin-1-yl)ethyl)piperazin-1-yl)-1-oxoisoindolin-2-yl)piperidine-2,6-dione]
inhibition at up to 10 µM (MDA-MB-468): 32.7%
inhibition at up to 10 µM (TamR-MCF-7): 40.2%
inhibition at up to 10 µM (MCF-7): 45.6%

CCN(CCOCCOCCNc1cccc2c1C(=O)N(C1CCC(=O)NC1=O)C2=O)CCOc1ccc(Oc2c(-c3ccc(S(C)(=O)=O)cc3)ccc3cc(O)ccc23)cc1 (centres unmarked) [Compound D42]
inhibition at up to 10 µM (MDA-MB-468): 39%
IC50 (MCF-7 ER^D538G): 283 nM
inhibition at up to 10 µM (MCF-7 ER^D538G): 77%
inhibition at up to 10 µM (MCF-7 ER^Y537S): 46%
inhibition at up to 10 µM (MCF-7): 37%

CS(=O)(=O)c1ccc(-c2ccc3cc(O)ccc3c2Oc2ccc(OCCOCCOCCOCCN3CCN(c4ccc5c(c4)CN(C4CCC(=O)NC4=O)C5=O)CC3)cc2)cc1 (centres unmarked) [Compound D27]
inhibition at up to 10 µM (MCF-7 ER^D538G): 69%
inhibition at up to 10 µM (TamR-MCF-7): 40%
IC50 (MCF-7): 222 nM
inhibition at up to 10 µM (MCF-7): 60%

CCN(CCCCCOCC(=O)Nc1cccc2c1CN(C1CCC(=O)NC1=O)C2=O)CCOc1ccc(Oc2c(-c3ccc(S(C)(=O)=O)cc3)ccc3cc(O)ccc23)cc1 (centres unmarked) [Compound D1, N-(2-(2,6-dioxopiperidin-3-yl)-1-oxoisoindolin-4-yl)-2-((5-(ethyl(2-(4-((6-hydroxy-2-(4-(methylsulfonyl)phenyl)naphthalen-1-yl)oxy)phenoxy)ethyl)amino)pentyl)oxy)acetamide]
inhibition at up to 10 µM (MCF-7 ER^D538G): 79%
inhibition at up to 10 µM (TamR-MCF-7): 33%
inhibition at up to 10 µM (MCF-7 ER^Y537S): 73%
inhibition at up to 10 µM (MCF-7): 30%

CS(=O)(=O)c1ccc(-c2ccc3cc(O)ccc3c2Oc2ccc(OCCOCCOCCN3CCN(c4ccc5c(c4)C(=O)N(C4CCC(=O)NC4=O)C5=O)CC3)cc2)cc1 (centres unmarked) [Compound D16, 2-(2,6-dioxopiperidin-3-yl)-5-(4-(2-(2-(2-(4-((6-hydroxy-2-(4-(methylsulfonyl)phenyl)naphthalen-1-yl)oxy)phenoxy)ethoxy)ethoxy)ethyl)piperazin-1-yl)isoindoline-1,3-dione]
inhibition at up to 10 µM (MCF-7 ER^D538G): 47%
inhibition at up to 10 µM (TamR-MCF-7): 33%
inhibition at up to 10 µM (MCF-7): 51%

CCN(CCOCCOCCNc1ccc2c(c1)C(=O)N(C1CCC(=O)NC1=O)C2=O)CCOc1ccc(Oc2c(-c3ccc(S(C)(=O)=O)cc3)ccc3cc(O)ccc23)cc1 (centres unmarked) [Compound D45]
IC50 (MCF-7 ER^D538G): 198 nM
inhibition at up to 10 µM (MCF-7 ER^D538G): 75%
inhibition at up to 10 µM (TamR-MCF-7): 33%
inhibition at up to 10 µM (MCF-7 ER^Y537S): 44%
inhibition at up to 10 µM (MCF-7): 35%

CCN(CCOCC(=O)N1CCN(c2cccc3c2CN(C2CCC(=O)NC2=O)C3=O)CC1)CCOc1ccc(Oc2c(-c3ccc(S(C)(=O)=O)cc3)ccc3cc(O)ccc23)cc1 (centres unmarked) [Compound D52]
inhibition at up to 10 µM (TamR-MCF-7): 39.4%
inhibition at up to 10 µM (MCF-7): 52.6%

CCN(CCOCCOCCOc1cccc2c1C(=O)N(C1CCC(=O)NC1=O)C2=O)CCOc1ccc(Oc2c(-c3ccc(S(C)(=O)=O)cc3)ccc3cc(O)ccc23)cc1 (centres unmarked) [Compound D41]
inhibition at up to 10 µM (MDA-MB-468): 31%
inhibition at up to 10 µM (MCF-7 ER^D538G): 65%
inhibition at up to 10 µM (MCF-7 ER^Y537S): 50%

CCN(CCOc1ccc(Oc2c(-c3ccc(S(C)(=O)=O)cc3)ccc3cc(O)ccc23)cc1)CCN1CCN(c2ccc3c(c2)CN(C2CCC(=O)NC2=O)C3=O)CC1 (centres unmarked) [Compound D57, 3-(5-(4-(2-(ethyl(2-(4-((6-hydroxy-2-(4-(methylsulfonyl)phenyl)naphthalen-1-yl)oxy)phenoxy)ethyl)amino)ethyl)piperazin-1-yl)-1-oxoisoindolin-2-yl)piperidine-2,6-dione]
inhibition at up to 10 µM (MCF-7 ER^D538G): 51%
inhibition at up to 10 µM (MCF-7 ER^Y537S): 46%
